Measured values reported in patent US9340590B2 (priority 2011, dated 2016).
Where two headings read alike, the source gives them in different places. Positions of bridges follow the written chain, without caps; N, C: chain ends. Non-standard residues stand in square brackets, D forms with d. Residues, ends and D or L forms follow the SMILES beside them. Phe(4-COOH) = N[C@@H](Cc1ccc(C(=O)O)cc1)C(=O)O; Trp(1-Me) = Cn1cc(C[C@H](N)C(=O)O)c2ccccc21; 2Pal = N[C@@H](Cc1ccccn1)C(=O)O; Cha = N[C@@H](CC1CCCCC1)C(=O)O; Phg = N[C@H](C(=O)O)c1ccccc1

How the values were obtained:
Assay in all cases: cell-based
hNav1.7 = hNav1.7 (Homo sapiens, UniProt Q15858); type: cell-based; conditions: IonWorks Quattro, […], read-out: IWQ Use Nav1.7
hNav1.7, sequence (Q15858 whole entry, looked up): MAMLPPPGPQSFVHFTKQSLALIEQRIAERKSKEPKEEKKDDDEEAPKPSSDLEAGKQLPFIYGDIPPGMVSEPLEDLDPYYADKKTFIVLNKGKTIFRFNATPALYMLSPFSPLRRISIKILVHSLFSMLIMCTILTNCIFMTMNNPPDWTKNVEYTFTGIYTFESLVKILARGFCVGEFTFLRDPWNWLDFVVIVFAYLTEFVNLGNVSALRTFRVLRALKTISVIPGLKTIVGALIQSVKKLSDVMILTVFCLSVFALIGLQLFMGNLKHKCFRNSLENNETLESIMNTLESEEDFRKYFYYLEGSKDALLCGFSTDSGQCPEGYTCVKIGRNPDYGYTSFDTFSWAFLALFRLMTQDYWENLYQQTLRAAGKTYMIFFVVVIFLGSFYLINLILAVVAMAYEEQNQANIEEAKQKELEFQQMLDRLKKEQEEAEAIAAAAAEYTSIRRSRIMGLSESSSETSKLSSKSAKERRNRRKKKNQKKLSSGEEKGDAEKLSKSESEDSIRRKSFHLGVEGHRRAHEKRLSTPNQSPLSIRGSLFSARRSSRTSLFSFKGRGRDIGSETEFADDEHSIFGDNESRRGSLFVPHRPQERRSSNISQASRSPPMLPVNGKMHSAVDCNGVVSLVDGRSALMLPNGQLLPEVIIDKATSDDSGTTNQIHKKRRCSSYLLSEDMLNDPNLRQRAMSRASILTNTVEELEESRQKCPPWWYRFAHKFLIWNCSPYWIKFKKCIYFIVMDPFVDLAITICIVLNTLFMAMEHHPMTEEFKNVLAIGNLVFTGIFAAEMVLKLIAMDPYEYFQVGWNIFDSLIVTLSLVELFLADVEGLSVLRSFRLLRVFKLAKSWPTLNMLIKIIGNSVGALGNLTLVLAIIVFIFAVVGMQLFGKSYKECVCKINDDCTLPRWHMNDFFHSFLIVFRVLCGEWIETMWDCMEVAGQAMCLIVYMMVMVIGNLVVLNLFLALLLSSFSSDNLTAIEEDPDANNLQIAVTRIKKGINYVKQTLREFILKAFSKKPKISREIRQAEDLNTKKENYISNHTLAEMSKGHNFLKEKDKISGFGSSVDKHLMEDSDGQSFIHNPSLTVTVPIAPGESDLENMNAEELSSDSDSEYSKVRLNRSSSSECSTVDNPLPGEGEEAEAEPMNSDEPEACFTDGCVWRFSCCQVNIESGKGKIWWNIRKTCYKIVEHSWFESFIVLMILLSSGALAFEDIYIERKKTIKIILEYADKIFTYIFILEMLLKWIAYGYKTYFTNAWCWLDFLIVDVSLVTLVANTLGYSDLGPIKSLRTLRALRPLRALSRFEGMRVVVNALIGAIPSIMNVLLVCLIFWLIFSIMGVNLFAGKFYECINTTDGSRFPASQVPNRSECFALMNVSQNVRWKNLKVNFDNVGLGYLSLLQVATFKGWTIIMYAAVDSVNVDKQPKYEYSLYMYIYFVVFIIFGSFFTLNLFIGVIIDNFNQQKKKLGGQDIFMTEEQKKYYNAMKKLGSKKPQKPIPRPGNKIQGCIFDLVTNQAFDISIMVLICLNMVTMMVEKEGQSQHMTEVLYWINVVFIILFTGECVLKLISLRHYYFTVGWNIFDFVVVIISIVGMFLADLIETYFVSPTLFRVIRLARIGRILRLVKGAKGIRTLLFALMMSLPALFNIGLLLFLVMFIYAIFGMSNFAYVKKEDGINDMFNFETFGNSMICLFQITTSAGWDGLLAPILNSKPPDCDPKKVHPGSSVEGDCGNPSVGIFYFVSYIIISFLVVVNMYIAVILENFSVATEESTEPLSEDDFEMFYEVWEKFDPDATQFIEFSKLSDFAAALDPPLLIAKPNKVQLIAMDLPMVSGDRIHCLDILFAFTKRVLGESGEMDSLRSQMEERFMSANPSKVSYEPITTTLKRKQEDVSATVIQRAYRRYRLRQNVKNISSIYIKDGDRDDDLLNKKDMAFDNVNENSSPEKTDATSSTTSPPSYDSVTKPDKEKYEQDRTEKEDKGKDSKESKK

hNav1.5 = hNav1.5 (Homo sapiens, UniProt Q14524)
hNav1.3 = hNav1.3 (Homo sapiens, UniProt Q9NY46); conditions: IonWorks Quattro, […], read-out: IWQ Use Nav1.3
hNav1.3, sequence (Q9NY46 whole entry, looked up): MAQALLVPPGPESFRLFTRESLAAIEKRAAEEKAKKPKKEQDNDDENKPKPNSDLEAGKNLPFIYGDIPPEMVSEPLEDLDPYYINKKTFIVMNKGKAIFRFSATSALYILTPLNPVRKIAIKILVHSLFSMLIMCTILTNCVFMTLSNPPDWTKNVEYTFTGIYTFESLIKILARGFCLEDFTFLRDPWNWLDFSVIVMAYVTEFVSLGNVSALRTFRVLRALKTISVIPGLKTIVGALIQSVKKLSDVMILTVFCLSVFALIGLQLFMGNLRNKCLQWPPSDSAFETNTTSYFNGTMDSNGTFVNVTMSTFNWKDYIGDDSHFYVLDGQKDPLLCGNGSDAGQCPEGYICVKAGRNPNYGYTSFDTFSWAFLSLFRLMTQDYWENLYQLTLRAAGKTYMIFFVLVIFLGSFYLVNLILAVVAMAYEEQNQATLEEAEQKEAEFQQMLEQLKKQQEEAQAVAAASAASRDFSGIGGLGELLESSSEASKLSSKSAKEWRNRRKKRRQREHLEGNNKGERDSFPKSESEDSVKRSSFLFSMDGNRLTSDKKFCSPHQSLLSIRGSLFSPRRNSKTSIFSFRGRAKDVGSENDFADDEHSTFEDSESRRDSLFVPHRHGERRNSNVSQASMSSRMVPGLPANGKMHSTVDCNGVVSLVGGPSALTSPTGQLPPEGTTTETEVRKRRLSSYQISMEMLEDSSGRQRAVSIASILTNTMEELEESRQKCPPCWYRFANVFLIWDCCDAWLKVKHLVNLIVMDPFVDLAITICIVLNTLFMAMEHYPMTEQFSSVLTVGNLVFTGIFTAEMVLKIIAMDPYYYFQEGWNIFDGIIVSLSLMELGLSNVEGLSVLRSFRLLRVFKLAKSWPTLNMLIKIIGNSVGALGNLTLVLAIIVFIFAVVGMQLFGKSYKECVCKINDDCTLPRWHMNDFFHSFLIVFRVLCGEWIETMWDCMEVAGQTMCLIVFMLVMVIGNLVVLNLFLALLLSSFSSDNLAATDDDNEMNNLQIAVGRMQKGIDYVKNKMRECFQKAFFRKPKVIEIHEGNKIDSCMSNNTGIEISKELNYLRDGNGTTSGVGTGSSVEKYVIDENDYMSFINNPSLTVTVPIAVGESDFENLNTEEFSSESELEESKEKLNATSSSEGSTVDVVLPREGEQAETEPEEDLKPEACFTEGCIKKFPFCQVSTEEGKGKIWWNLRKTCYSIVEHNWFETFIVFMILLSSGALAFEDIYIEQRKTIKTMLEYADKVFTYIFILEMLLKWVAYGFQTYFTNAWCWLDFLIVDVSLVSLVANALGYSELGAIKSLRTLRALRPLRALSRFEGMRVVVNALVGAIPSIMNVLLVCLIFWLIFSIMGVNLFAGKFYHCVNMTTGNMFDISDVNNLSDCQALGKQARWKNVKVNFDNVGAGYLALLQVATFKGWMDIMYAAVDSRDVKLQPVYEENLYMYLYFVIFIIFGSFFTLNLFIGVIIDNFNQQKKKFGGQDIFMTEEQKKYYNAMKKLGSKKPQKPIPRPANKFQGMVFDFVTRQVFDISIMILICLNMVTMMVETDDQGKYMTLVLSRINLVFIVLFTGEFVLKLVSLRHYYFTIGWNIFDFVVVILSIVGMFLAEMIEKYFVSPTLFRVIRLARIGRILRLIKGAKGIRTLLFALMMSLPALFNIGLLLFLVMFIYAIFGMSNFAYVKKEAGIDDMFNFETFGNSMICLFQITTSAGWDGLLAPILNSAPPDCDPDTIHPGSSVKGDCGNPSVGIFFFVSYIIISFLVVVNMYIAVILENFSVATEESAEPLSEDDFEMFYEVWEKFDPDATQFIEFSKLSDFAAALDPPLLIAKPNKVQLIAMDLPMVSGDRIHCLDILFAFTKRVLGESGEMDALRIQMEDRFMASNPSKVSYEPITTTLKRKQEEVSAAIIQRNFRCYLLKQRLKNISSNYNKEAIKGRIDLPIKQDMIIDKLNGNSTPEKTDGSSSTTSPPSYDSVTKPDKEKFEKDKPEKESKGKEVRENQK

[1] = Table 26, IonWorks Quattro, use, […], read-out: IWQ Use Nav1.5
[2] = IonWorks Quattro, use-dependent, […], read-out: IWQ Use Nav1.5

Structure (SMILES) | IC50 (hNav1.7; Table 26, use) [nM] | IC50 (hNav1.5; IWQ Use Nav1.5 (μM)) [µM] | IC50 (hNav1.3; Table 26, use) [nM] | IC50 (hNav1.5; [1]) [µM] | IC50 (hNav1.7; use-dependent) [nM] | IC50 (hNav1.5; [2]) [µM] | IC50 (hNav1.3; use-dependent) [nM]
CC[C@H](C)[C@@H]1NC(=O)[C@@H]2CSSC[C@@H]3NC(=O)[C@H](C(C)C)NC(=O)[C@H](CC(C)C)NC(=O)[C@H](CC(N)=O)NC(=O)[C@@H]4CCCN4C(=O)[C@H](CCCNC(=N)N)NC(=O)[C@H](CSSC[C@H](NC(=O)[C@@H](N)CC(=O)O)C(=O)N[C@@H](CC(C)C)C(=O)NCC(=O)N[C@@H](Cc4ccccc4)C(=O)N[C@@H](CCSC)C(=O)N[C@@H](CCCNC(=N)N)C(=O)N[C@@H](CCCCN)C(=O)N2)NC(=O)[C@H](CSSC[C@@H](C(=O)N[C@@H](CCCCN)C(=O)N[C@@H](Cc2ccc(O)cc2)C(=O)N[C@@H](CC(C)C)C(=O)N[C@@H](Cc2ccccc2)C(N)=O)NC(=O)[C@H](Cc2c[nH]c4ccccc24)NC(=O)[C@H](CCCCN)NC(=O)[C@H](Cc2c[nH]cn2)NC(=O)[C@H]([C@@H](C)O)NC(=O)[C@H](CCCNC(=N)N)NC(=O)[C@H](CO)NC3=O)NC(=O)[C@H](CCCCN)NC(=O)[C@H](CC(=O)O)NC(=O)[C@H](CC(N)=O)NC(=O)[C@H](CC(=O)O)NC(=O)[C@@H]2CCCN2C1=O [compound 400] (H-DCLGFMRKCIPDNDKCCRPNLVCSRTHKWCKYLF-NH2; disulfide 2-17, 9-23, 16-30) | 130 | > 5 | 70 |  |  |  | 
CC[C@H](C)[C@@H]1NC(=O)[C@@H]2CSSC[C@@H]3NC(=O)[C@H](C(C)C)NC(=O)[C@H](CC(C)C)NC(=O)[C@H](CC(N)=O)NC(=O)[C@@H]4CCCN4C(=O)[C@H](CCCNC(=N)N)NC(=O)[C@H](CSSC[C@H](NC(=O)[C@@H](N)CC(=O)O)C(=O)N[C@@H](CC(C)C)C(=O)NCC(=O)N[C@@H](Cc4ccccc4)C(=O)N[C@@H](CCSC)C(=O)N[C@@H](CCCNC(=N)N)C(=O)N[C@@H](CCCCN)C(=O)N2)NC(=O)[C@H](CSSC[C@@H](C(=O)N[C@@H](CCCCN)C(=O)N[C@@H](Cc2ccc(O)cc2)C(=O)NCC(=O)N[C@@H](Cc2ccccc2)C(N)=O)NC(=O)[C@H](Cc2c[nH]c4ccccc24)NC(=O)[C@H](CCCCN)NC(=O)[C@H](Cc2c[nH]cn2)NC(=O)[C@H]([C@@H](C)O)NC(=O)[C@H](CCCNC(=N)N)NC(=O)[C@H](CO)NC3=O)NC(=O)[C@H](CCCCN)NC(=O)[C@H](CC(=O)O)NC(=O)[C@H](CC(N)=O)NC(=O)[C@H](CC(=O)O)NC(=O)[C@@H]2CCCN2C1=O [compound 401] (H-DCLGFMRKCIPDNDKCCRPNLVCSRTHKWCKYGF-NH2; disulfide 2-17, 9-23, 16-30) | 290 | > 5 | 40 |  |  |  | 
CC[C@H](C)[C@@H]1NC(=O)[C@@H]2CSSC[C@@H]3NC(=O)[C@H](C(C)C)NC(=O)[C@H](CC(C)C)NC(=O)[C@H](CC(N)=O)NC(=O)[C@@H]4CCCN4C(=O)[C@H](CCCNC(=N)N)NC(=O)[C@H](CSSC[C@H](NC(=O)[C@@H](N)CC(=O)O)C(=O)N[C@@H](CC(C)C)C(=O)NCC(=O)N[C@@H](Cc4ccccc4)C(=O)N[C@@H](CCSC)C(=O)N[C@@H](CCCNC(=N)N)C(=O)N[C@@H](CCCCN)C(=O)N2)NC(=O)[C@H](CSSC[C@@H](C(=O)N[C@@H](CCCCN)C(=O)N[C@@H](Cc2ccc(O)cc2)C(=O)N[C@@H](Cc2ccccn2)C(=O)N[C@@H](Cc2ccccc2)C(N)=O)NC(=O)[C@H](Cc2c[nH]c4ccccc24)NC(=O)[C@H](CCCCN)NC(=O)[C@H](Cc2c[nH]cn2)NC(=O)[C@H]([C@@H](C)O)NC(=O)[C@H](CCCNC(=N)N)NC(=O)[C@H](CO)NC3=O)NC(=O)[C@H](CCCCN)NC(=O)[C@H](CC(=O)O)NC(=O)[C@H](CC(N)=O)NC(=O)[C@H](CC(=O)O)NC(=O)[C@@H]2CCCN2C1=O [compound 402] (H-DCLGFMRKCIPDNDKCCRPNLVCSRTHKWCKY[2Pal]F-NH2; disulfide 2-17, 9-23, 16-30) | 120 |  | 160 | 8.36 |  |  | 
CC[C@H](C)[C@@H]1NC(=O)[C@@H]2CSSC[C@@H]3NC(=O)[C@H](C(C)C)NC(=O)[C@H](CC(C)C)NC(=O)[C@H](CC(N)=O)NC(=O)[C@@H]4CCCN4C(=O)[C@H](CCCNC(=N)N)NC(=O)[C@H](CSSC[C@H](NC(=O)[C@@H](N)CC(=O)O)C(=O)N[C@@H](CC(C)C)C(=O)NCC(=O)N[C@@H](Cc4ccccc4)C(=O)N[C@@H](CCSC)C(=O)N[C@@H](CCCNC(=N)N)C(=O)N[C@@H](CCCCN)C(=O)N2)NC(=O)[C@H](CSSC[C@@H](C(=O)N[C@@H](CCCCN)C(=O)N[C@@H](Cc2ccc(O)cc2)C(=O)N[C@@H](Cc2ccc(C(=O)O)cc2)C(=O)N[C@@H](Cc2ccccc2)C(N)=O)NC(=O)[C@H](Cc2c[nH]c4ccccc24)NC(=O)[C@H](CCCCN)NC(=O)[C@H](Cc2c[nH]cn2)NC(=O)[C@H]([C@@H](C)O)NC(=O)[C@H](CCCNC(=N)N)NC(=O)[C@H](CO)NC3=O)NC(=O)[C@H](CCCCN)NC(=O)[C@H](CC(=O)O)NC(=O)[C@H](CC(N)=O)NC(=O)[C@H](CC(=O)O)NC(=O)[C@@H]2CCCN2C1=O [compound 403] (H-DCLGFMRKCIPDNDKCCRPNLVCSRTHKWCKY[Phe(4-COOH)]F-NH2; disulfide 2-17, 9-23, 16-30) | 160 |  | 310 | 9.06 |  |  | 
CC[C@H](C)[C@@H]1NC(=O)[C@@H]2CSSC[C@@H]3NC(=O)[C@H](C(C)C)NC(=O)[C@H](CC(C)C)NC(=O)[C@H](CC(N)=O)NC(=O)[C@@H]4CCCN4C(=O)[C@H](CCCNC(=N)N)NC(=O)[C@H](CSSC[C@H](NC(=O)[C@@H](N)CC(=O)O)C(=O)N[C@@H](CC(C)C)C(=O)NCC(=O)N[C@@H](Cc4ccccc4)C(=O)N[C@@H](CCSC)C(=O)N[C@@H](CCCNC(=N)N)C(=O)N[C@@H](CCCCN)C(=O)N2)NC(=O)[C@H](CSSC[C@@H](C(=O)N[C@@H](CCCCN)C(=O)N[C@@H](Cc2ccc(O)cc2)C(=O)N[C@H](C(=O)N[C@@H](CC2CCCCC2)C(N)=O)C(C)C)NC(=O)[C@H](Cc2c[nH]c4ccccc24)NC(=O)[C@H](CCCCN)NC(=O)[C@H](Cc2c[nH]cn2)NC(=O)[C@H]([C@@H](C)O)NC(=O)[C@H](CCCNC(=N)N)NC(=O)[C@H](CO)NC3=O)NC(=O)[C@H](CCCCN)NC(=O)[C@H](CC(=O)O)NC(=O)[C@H](CC(N)=O)NC(=O)[C@H](CC(=O)O)NC(=O)[C@@H]2CCCN2C1=O [compound 405] (H-DCLGFMRKCIPDNDKCCRPNLVCSRTHKWCKYV[Cha]-NH2; disulfide 2-17, 9-23, 16-30) |  |  |  |  | 20 | 5.53 | 10
CC[C@H](C)[C@@H]1NC(=O)[C@@H]2CSSC[C@@H]3NC(=O)[C@H](C(C)C)NC(=O)[C@H](CC(C)C)NC(=O)[C@H](CC(N)=O)NC(=O)[C@@H]4CCCN4C(=O)[C@H](CCCNC(=N)N)NC(=O)[C@H](CSSC[C@H](NC(=O)[C@@H](N)CC(=O)O)C(=O)N[C@@H](CC(C)C)C(=O)NCC(=O)N[C@@H](Cc4ccccc4)C(=O)N[C@@H](CCSC)C(=O)N[C@@H](CCCNC(=N)N)C(=O)N[C@@H](CCCCN)C(=O)N2)NC(=O)[C@H](CSSC[C@@H](C(=O)N[C@@H](CCCCN)C(=O)N[C@@H](Cc2ccc(O)cc2)C(=O)N[C@H](C(=O)N[C@H](C(N)=O)c2ccccc2)C(C)C)NC(=O)[C@H](Cc2c[nH]c4ccccc24)NC(=O)[C@H](CCCCN)NC(=O)[C@H](Cc2c[nH]cn2)NC(=O)[C@H]([C@@H](C)O)NC(=O)[C@H](CCCNC(=N)N)NC(=O)[C@H](CO)NC3=O)NC(=O)[C@H](CCCCN)NC(=O)[C@H](CC(=O)O)NC(=O)[C@H](CC(N)=O)NC(=O)[C@H](CC(=O)O)NC(=O)[C@@H]2CCCN2C1=O [compound 406] (H-DCLGFMRKCIPDNDKCCRPNLVCSRTHKWCKYV[Phg]-NH2; disulfide 2-17, 9-23, 16-30) |  |  |  |  | 40 | 5.95 | 20
CC[C@H](C)[C@@H]1NC(=O)[C@@H]2CSSC[C@@H]3NC(=O)[C@H](C(C)C)NC(=O)[C@H](CC(C)C)NC(=O)[C@H](CC(N)=O)NC(=O)[C@@H]4CCCN4C(=O)[C@H](CCCNC(=N)N)NC(=O)[C@H](CSSC[C@H](NC(=O)[C@@H](N)CC(=O)O)C(=O)N[C@@H](CC(C)C)C(=O)NCC(=O)N[C@@H](Cc4ccccc4)C(=O)N[C@@H](CCSC)C(=O)N[C@@H](CCCNC(=N)N)C(=O)N[C@@H](CCCCN)C(=O)N2)NC(=O)[C@H](CSSC[C@@H](C(=O)N[C@@H](CCCCN)C(=O)N[C@@H](Cc2ccc(O)cc2)C(=O)N[C@H](C(=O)N(C)[C@@H](Cc2ccccc2)C(N)=O)C(C)C)NC(=O)[C@H](Cc2c[nH]c4ccccc24)NC(=O)[C@H](CCCCN)NC(=O)[C@H](Cc2c[nH]cn2)NC(=O)[C@H]([C@@H](C)O)NC(=O)[C@H](CCCNC(=N)N)NC(=O)[C@H](CO)NC3=O)NC(=O)[C@H](CCCCN)NC(=O)[C@H](CC(=O)O)NC(=O)[C@H](CC(N)=O)NC(=O)[C@H](CC(=O)O)NC(=O)[C@@H]2CCCN2C1=O [compound 408] |  |  |  |  | 10000 | 18.8 | 4560
CC[C@H](C)[C@@H]1NC(=O)[C@@H]2CSSC[C@@H]3NC(=O)[C@H](C(C)C)NC(=O)[C@H](CC(C)C)NC(=O)[C@H](CC(N)=O)NC(=O)[C@@H]4CCCN4C(=O)[C@H](CCCNC(=N)N)NC(=O)[C@H](CSSC[C@H](NC(=O)[C@@H](N)CC(=O)O)C(=O)N[C@@H](CC(C)C)C(=O)NCC(=O)N[C@@H](Cc4ccccc4)C(=O)N[C@@H](CCSC)C(=O)N[C@@H](CCCNC(=N)N)C(=O)N[C@@H](CCCCN)C(=O)N2)NC(=O)[C@H](CSSC[C@@H](C(=O)N[C@@H](CCCCN)C(=O)N[C@@H](Cc2ccc(O)cc2)C(=O)N[C@H](C(=O)N[C@@H](Cc2cn(C)c4ccccc24)C(N)=O)C(C)C)NC(=O)[C@H](Cc2c[nH]c4ccccc24)NC(=O)[C@H](CCCCN)NC(=O)[C@H](Cc2c[nH]cn2)NC(=O)[C@H]([C@@H](C)O)NC(=O)[C@H](CCCNC(=N)N)NC(=O)[C@H](CO)NC3=O)NC(=O)[C@H](CCCCN)NC(=O)[C@H](CC(=O)O)NC(=O)[C@H](CC(N)=O)NC(=O)[C@H](CC(=O)O)NC(=O)[C@@H]2CCCN2C1=O [compound 409] (H-DCLGFMRKCIPDNDKCCRPNLVCSRTHKWCKYV[Trp(1-Me)]-NH2; disulfide 2-17, 9-23, 16-30) |  |  |  |  | 90 | 5.61 | 70
